Data taken from patent US20160030438A1, “ANTI-TUMORAL COMPOSITION COMPRISING A PI3KBETA INHIBITOR AND A RAF INHIBITOR, TO OVERCOME CANCER CELLS RESISTANCE” (SANOFI, priority 2013, published 2016).

Tests used:
[1] = tested on: ribosomal protein S6 phosphorylated on Ser240/244 (pS6) in WM-266-4 cells; experiment: In vitro S6 phosphorylation inhibition (pS6 western blot) in WM-266-4, example 7; type: cell-based, human; conditions: for inhibition at 0.1 µM: Homo sapiens
Protocol: (§1) The inhibitory effect on ribosomal S6 protein phosphorylation by both compounds alone or in combination was characterized using western blotting method which allows investigating S6 phosphorylation by detecting the expression of ribosomal protein S6 phosphorylated on Ser240/244 position (pS6).
(§2) The human melanoma WM-266-4 cell line was purchased at ATCC (Ref number CRL-1676 Batch 3272826). The WM-266-4 cells were cultured in RPMI1640 medium supplemented with 10% FBS and 2 mM L-Glutamine.
WM-266-4 cells were seeded into 6-well microplates at 1 000 000 cells per well, in complete culture medium and incubated at 37° C., 5% CO2, overnight.
At the end of cell treatment period, adherent cells as well as cells in the cell culture supernatant were lysed for the preparation of the proteins. Cells were lysed in a lysis buffer containing Hepes 50 mM, NaCl 150 mM, Glycerol 10%, Triton 1%, pH=7.5, adding extemporaneously a cocktail of protease and phosphatase inhibitors diluted 100 fold. Protein concentrations in each sample were determined using microBCA technique according to manufacturer's instructions. […] After western blotting revelation according to the operating procedure instructions, luminescence was read using FujiFilm (Ray Test) apparatus.
This instrument measures the total signal of luminescence obtained on Fujifilm machine (AU) for each selected band. Then, it subtracts the background value (BG) proportional to the size of the selected band or Area. The background is calculated from a band taken on the specific background of the western blot, to obtain the specific signal or (AU−BG) for each band. The calculation of the percentage of inhibition is performed for each treatment with compound or combination of compounds using the following formula:
Inhibition %=1−(((AU−BG)t/(AU−BG)st))*100

[2] = tested on: human melanoma cell line A2058; experiment: In vitro anti-proliferative activity (CelltiterGlo, ray design) in A2058, example 3; type: cell-based; conditions: for Absolute IC40: A2058, 96 hours, example 3
Protocol: (I) in combination with the BRAF inhibitor compound (II), experiments were conducted using human melanoma cell line A2058 (BRAF mutant, PTEN-deficient and unsensitive to said BRAF inhibitor).
(§3) The human melanoma A2058 cell line was purchased at ATCC (Ref number CRL-11147 Batch 5074651). The A2058 cells were cultured in DMEM High glucose medium supplemented with 10% FBS and 2 mM L-Glutamine.
Compounds (I) and (II) dilutions were prepared according to the material and methods of example 1. The final concentrations tested were defined by Ray design method described below. The DMSO concentration was 0.1% in controls and in all treated wells.
A ray design was used allowing the characterization of the interaction of the two compounds for several fixed proportion in the mixture. The ray design includes one ray for each single agent and 19 combination rays.
A2058 cells were plated at 4,000 cells/well in 384-well plates in appropriate culture medium and incubated for 6 hours at 37° C., 5% CO2. […] Cell growth was evaluated by measuring intracellular ATP using CelltiterGlo® reagent (Promega) according to the manufacturer's protocol. Briefly, CellTiterGlo® was added to each plate, incubated for 1 hour then luminescent signal was read on the MicroBeta Luminescent plate reader.
Four experiments have been performed on this cell line. For each experiment, two 384-well plates were used allowing working with duplicates for combination rays and with quadruplicates for single agent rays.
Inhibition of cell growth was estimated after treatment with single compounds or combination of compounds for four days and comparing the signal to cells treated with vehicle (DMSO) and following equation described in example 1.
These measurements allow determining the potential synergistic combinations in using the statistical method described in example 1.

[3] = tested on: human melanoma cell line A2058; experiment: In vitro pro-apoptotic activity (PARP cleavage western blot) in A2058, example 4; type: cell-based
Protocol: (§4) The characterization of the interaction between compound (I) and compound (II) was studied using western blotting method which allows investigating apoptosis by detecting the cleavage of the PARP protein.
as §3
(§5) Cell treatment, Western Blot experiment and calculation of apoptosis fold induction were performed according to the material and method described in example 2.

[4] = tested on: human melanoma cell line A2058; experiment: In vitro pro-apoptotic activity (PARP cleavage) in A2058 in a concentration-dependent manner, example 6; type: cell-based; conditions: A2058, example 6
Protocol: as §4, §3, §5

[5] = tested on: human melanoma cell line WM-266-4; experiment: In vitro pro-apoptotic activity (PARP cleavage) in WM-266-4 in a concentration-dependent manner, example 5; type: cell-based; conditions: WM-266-4, example 5
Protocol: as §4, §2
They were diluted following two 10-fold step dilution in DMSO in order to obtain a 1 mM solution and a 0.1 mM solution Then each solution at 10 mM, 1 mM or 0.1 mM was diluted 50-fold in culture medium containing 10% serum before being added onto cells with a 20-fold dilution factor to reach final concentrations of 10,000 nM, 1,000 nM and 100 nM. The final DMSO concentration was 0.1% in controls and in all treated wells.
as §5

[6] = tested on: ribosomal protein S6 phosphorylated on Ser240/244 (pS6) in A2058 cells; experiment: In vitro S6 phosphorylation inhibition (pS6 western blot) in A2058, example 8; type: cell-based, human; conditions: for inhibition at 0.1 µM: Homo sapiens
Protocol: as §1, §3
Cell treatment, Western Blot experiment and calculation of percentage of pS6 inhibition were performed according to the material and method described in example 7.

[7] = single agent 10 000 nM, 24 hours
[8] = single agent 10 000 nM, A2058, example 4
[9] = Homo sapiens, single agent 100 nM

Structure (SMILES)	inhibition at 0.1 µM ([1]; single agent 100 nM) [%]	pS6 signal (AU-BG) ([1]; single agent 100 nM)	Inhibition % of S6 phosphorylation ([1]; single agent 1 000 nM) [%]	pS6 signal (AU-BG) ([1]; single agent 1 000 nM)	Inhibition % of S6 phosphorylation [1, 7] [%]	pS6 signal (AU-BG) [1, 7] [AU-BG]	Absolute IC40 ([2]; single agent)	PARP cleavage signal (AU-BG) [3, 8] [AU-BG]	PARP cleavage signal (AU-BG) ([4]; single agent 100 nM)	PARP cleavage signal (AU-BG) ([4]; single agent 1 000 nM)	PARP cleavage signal (AU-BG) ([4]; single agent 10 000 nM)	PARP cleavage signal (AU-BG) ([5]; single agent 100 nM)	PARP cleavage signal (AU-BG) ([5]; single agent 1 000 nM)	PARP cleavage signal (AU-BG) ([5]; single agent 10 000 nM)	inhibition at 0.1 µM ([6]; single agent 100 nM) [%]	pS6 signal (AU-BG) ([6]; single agent 100 nM)	Inhibition % of S6 phosphorylation ([6]; single agent 1 000 nM) [%]	pS6 signal (AU-BG) ([6]; single agent 1 000 nM)	Inhibition % of S6 phosphorylation ([6]; single agent 10 000 nM) [%]	pS6 signal (AU-BG) ([6]; single agent 10 000 nM)	also measured
CCCS(=O)(=O)Nc1ccc(F)c(C(=O)c2c[nH]c3ncc(-c4ccc(Cl)cc4)cc23)c1F [Compound (II), 1-Propanesulfonamide,N-[3-[[5-(4-chlorophenyl)-1H-pyrrolo[2,3-b]pyridin-3-yl]carbonyl]-2,4-difluorophenyl]]	76	9230994	92	3163194	94	2333062	1,890 nM	2501364	2431268	4540797	5192876	413818	662217	876269	27	21830955	40	17943024	62	11383792	IC50 ([2]; Homo sapiens, A2058, approximately, read-out: IC50 with A2058 unsensitive cancer cells): ~4.2 µM; IC40, antiproliferative effect, A2058 ([2]; single agent, approximately): ~1,200 nM; Fold induction of PARP cleavage ([3]; human, 24 h, 10000 nM): 1.00 fold; Fold induction of PARP cleavage [3, 8]: 1.17 fold; fold induction at 0.1 µM [4, 9]: 1.14; Fold induction of PARP cleavage ([4]; single agent 1 000 nM): 2.13 fold; Fold induction of PARP cleavage ([4]; single agent 10 000 nM): 2.44 fold; fold induction at 0.1 µM [5, 9]: 1.62; Fold induction of PARP cleavage ([5]; single agent 1 000 nM): 2.59 fold; Fold induction of PARP cleavage ([5]; single agent 10 000 nM): 3.42 fold
C[C@H]1Cc2ccccc2N1C(=O)Cc1nc(N2CCOCC2)cc(=O)[nH]1 [Compound (I), 2-{2-[(2S)-2-methyl-2,3-dihydro-1H-indol-1-yl]-2-oxoethyl}-6-(morpholin-4-yl)pyrimidin-4(3H)-one]	69	12132104	90	3984365	94	2239754	11,500 nM	2141626	2380877	2685395	5173100	241428	502317	1756263	8	27394341	42	17416427	73	8161752	
